Consider two molecules from patent US11731967B2, “Inhibitors of TRIM33 and methods of use” (Dana-Farber Cancer Institute, Inc., priority 2017, dated 2023).

Like-named read-outs stand apart in the source and are kept apart here.

One test deals with T1, TRIM24 (Homo sapiens, UniProt O15164).
T1 sequence (O15164 1-1050): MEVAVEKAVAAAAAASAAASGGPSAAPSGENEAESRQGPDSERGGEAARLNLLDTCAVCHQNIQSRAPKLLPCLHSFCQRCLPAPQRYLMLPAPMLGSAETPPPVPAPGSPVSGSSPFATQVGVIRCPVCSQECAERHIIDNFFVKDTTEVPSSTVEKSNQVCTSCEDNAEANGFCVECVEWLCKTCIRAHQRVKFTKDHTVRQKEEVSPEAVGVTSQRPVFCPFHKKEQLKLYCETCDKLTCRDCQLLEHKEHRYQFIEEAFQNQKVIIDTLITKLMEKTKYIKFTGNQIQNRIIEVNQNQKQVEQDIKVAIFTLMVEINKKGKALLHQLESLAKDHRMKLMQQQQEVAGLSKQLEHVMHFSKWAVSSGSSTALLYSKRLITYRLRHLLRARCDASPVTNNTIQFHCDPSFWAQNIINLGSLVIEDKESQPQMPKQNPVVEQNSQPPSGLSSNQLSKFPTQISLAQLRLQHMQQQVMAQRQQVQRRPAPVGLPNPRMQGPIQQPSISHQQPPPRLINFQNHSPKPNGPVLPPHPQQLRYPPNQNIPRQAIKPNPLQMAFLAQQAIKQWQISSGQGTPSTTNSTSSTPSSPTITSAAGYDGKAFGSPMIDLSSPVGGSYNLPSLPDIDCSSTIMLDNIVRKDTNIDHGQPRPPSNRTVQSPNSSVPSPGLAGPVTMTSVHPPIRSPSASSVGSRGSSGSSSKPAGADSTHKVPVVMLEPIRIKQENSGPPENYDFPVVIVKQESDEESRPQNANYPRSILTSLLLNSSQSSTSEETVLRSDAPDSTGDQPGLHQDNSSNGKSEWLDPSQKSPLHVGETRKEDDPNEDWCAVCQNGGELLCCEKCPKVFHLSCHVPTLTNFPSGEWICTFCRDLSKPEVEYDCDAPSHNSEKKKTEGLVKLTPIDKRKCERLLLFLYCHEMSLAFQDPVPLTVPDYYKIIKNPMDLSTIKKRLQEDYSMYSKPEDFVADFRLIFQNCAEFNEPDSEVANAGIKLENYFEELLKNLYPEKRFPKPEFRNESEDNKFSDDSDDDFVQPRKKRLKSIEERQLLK
The test can be described thus: AlphaScreen binding assay for TRIM24 (counter-screening assay). From the text: (§1) A compound of the present application can be tested for its TRIM33 and/or TRIM24 activity with AlphaScreen Assay illustrated in FIG. 1.
(§2) Additionally, a second AlphaScreen® binding assay for TRIM24 as counter-screening assay for selectivity of TRIM33 over TRIM24 was developed. A focused compound libraries for TRIM33 inhibitor development was designed and synthesized using the design principle that is to connect the bromodomain binding motif/fragment to proper chemical scaffold via multi-component reactions, such as Groebke-Blackburn-Bienaymé (GBB) coupling reaction, to establish chemically bias library.
(§3) With multiple libraries synthesized (˜400 compounds) as described above, compounds were screened against TRIM33 and TRIM24 by AlphaScreen to establish structure activity relationship (SAR).
In general terms: Bead proximity is the source of the signal in Alpha formats.

Test [1] concerns recombinant PHD-bromodomain module of TRIM33. Kind of test: AlphaScreen binding assay, TRIM33 with biotinylated H3K9me3K18ac peptide. The settings on record: compounds shown in Table 2a.
Source text: (§4) The IC50 or EC50 of the compound of the present application can be determined by various methods known in the art. For example, the IC50 or EC50 of the compound of the present application can be measured by an AlphaScreen assay, as described herein (see FIG. 1).
as §1, §2, §3

The target in test [2] is T2, recombinant PHD-bromodomain module of TRIM33 (Homo sapiens, UniProt Q9UPN9).
T2 construct: rows headed: TRIM33 modulating activity; unit not given
T2 sequence (Q9UPN9 1-1127): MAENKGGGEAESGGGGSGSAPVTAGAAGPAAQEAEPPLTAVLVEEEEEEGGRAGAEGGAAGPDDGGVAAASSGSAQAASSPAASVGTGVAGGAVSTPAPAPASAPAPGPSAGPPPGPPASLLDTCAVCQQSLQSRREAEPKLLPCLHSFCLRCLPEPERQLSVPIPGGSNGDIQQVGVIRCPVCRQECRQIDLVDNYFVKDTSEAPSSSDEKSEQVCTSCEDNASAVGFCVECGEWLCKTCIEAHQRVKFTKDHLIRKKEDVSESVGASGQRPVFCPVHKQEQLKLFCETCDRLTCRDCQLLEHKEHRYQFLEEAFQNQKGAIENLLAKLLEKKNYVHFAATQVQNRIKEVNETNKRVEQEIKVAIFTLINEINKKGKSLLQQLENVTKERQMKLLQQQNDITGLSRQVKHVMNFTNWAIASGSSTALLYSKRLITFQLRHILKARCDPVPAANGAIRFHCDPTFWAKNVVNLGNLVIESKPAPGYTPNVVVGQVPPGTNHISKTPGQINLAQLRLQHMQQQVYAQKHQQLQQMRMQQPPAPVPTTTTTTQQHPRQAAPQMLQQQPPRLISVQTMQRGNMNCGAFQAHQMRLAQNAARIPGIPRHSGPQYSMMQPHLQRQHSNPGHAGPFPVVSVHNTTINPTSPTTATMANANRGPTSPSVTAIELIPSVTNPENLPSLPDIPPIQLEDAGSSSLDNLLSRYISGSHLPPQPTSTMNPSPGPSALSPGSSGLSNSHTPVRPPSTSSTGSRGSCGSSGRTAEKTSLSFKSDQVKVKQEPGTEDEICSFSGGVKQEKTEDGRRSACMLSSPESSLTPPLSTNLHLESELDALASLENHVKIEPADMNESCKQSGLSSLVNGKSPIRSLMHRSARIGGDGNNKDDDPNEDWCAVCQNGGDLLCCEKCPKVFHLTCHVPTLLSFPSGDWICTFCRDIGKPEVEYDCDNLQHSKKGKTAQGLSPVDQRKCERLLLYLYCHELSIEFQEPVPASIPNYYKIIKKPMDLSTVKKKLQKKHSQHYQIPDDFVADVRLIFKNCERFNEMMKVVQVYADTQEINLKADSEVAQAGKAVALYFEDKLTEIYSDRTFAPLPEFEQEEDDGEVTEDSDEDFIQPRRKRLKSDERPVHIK
The test is described as above.
Source text: as §4, §1, §2, §3

Consider `COc1ccc(CCNc2c(-c3nc[nH]c3C)nc3cnccn23)cc1OC` [Compound B8], for which the IC50 on TRIM24 (compounds with R7/R7′ shown in FIG. 11A (Table 6), read-out: IC50 TRIM24) was found to be 225 nM; in test [2] (compounds shown in Table 2a, called TRIM33 IC50 in title of Table 5, unit inferred, read-out: TRIM33 modulating activity), 44200 nM; in test [2] (compounds with R7/R7′ shown in FIG. 11A (Table 6), read-out: IC50 TRIM33) it was 283 nM. In test [1], the “Ratio of TRIM24 IC50 over TRIM33 IC50” value was determined as 1276.41.

Regarding `COC(=O)c1ccc2nc(-c3cn(S(=O)(=O)c4ccc(C)cc4)c4ccccc34)c(NCc3ccccc3)n2c1` [pck-9295-175], the IC50 at TRIM24 (compounds shown in FIG. 14A (Table 8), read-out: TRIM 24 IC50) was 415 nM; in test [2] (compounds shown in FIG. 14A (Table 8), read-out: TRIM 33 IC50) it was 320 nM.
